The values that follow come from patent publication EP4796538A1, “NOVEL QUINOXALINE COMPOUNDS, MANUFACTURING METHOD THEREOF, AND USES THEREOF” (Gachon University of Industry-Academic Cooperation …, priority 2023, dated 2025).

Like-named read-outs stand apart in the source and are kept apart here.

One test deals with T1, RET (Homo sapiens, UniProt P07949).
T1 construct: purchased Reaction Biology Corp
The test can be described thus: Kinase panel inhibition, radiolabeled [γ-33P] ATP (Reaction Biology Corp). It counts as biochemical. Conditions: for remaining activity at 1 µM: compound at 1 uM, ATP 10 µM, read-out: % Enzyme Activity (relative to DMSO controls) RET; for IC50: read-out: Enzymatic inhibitory activity (IC50) nM RET.

The next test has as its target T2, RET(G810R) (Homo sapiens, UniProt P07949, G810R).
T2 construct: purchased Reaction Biology Corp
The test is described as above. It counts as biochemical. The conditions noted are these: for remaining activity at 1 µM: compound at 1 uM, ATP 10 µM, read-out: % Enzyme Activity (relative to DMSO controls) G810R; for IC50: read-out: Enzymatic inhibitory activity (IC50) nM G810R.

The target of a further test is T3, RET(V804M) (Homo sapiens, UniProt P07949, V804M).
T3 construct: purchased Reaction Biology Corp
T3 sequence (P07949 29-1114 V804M): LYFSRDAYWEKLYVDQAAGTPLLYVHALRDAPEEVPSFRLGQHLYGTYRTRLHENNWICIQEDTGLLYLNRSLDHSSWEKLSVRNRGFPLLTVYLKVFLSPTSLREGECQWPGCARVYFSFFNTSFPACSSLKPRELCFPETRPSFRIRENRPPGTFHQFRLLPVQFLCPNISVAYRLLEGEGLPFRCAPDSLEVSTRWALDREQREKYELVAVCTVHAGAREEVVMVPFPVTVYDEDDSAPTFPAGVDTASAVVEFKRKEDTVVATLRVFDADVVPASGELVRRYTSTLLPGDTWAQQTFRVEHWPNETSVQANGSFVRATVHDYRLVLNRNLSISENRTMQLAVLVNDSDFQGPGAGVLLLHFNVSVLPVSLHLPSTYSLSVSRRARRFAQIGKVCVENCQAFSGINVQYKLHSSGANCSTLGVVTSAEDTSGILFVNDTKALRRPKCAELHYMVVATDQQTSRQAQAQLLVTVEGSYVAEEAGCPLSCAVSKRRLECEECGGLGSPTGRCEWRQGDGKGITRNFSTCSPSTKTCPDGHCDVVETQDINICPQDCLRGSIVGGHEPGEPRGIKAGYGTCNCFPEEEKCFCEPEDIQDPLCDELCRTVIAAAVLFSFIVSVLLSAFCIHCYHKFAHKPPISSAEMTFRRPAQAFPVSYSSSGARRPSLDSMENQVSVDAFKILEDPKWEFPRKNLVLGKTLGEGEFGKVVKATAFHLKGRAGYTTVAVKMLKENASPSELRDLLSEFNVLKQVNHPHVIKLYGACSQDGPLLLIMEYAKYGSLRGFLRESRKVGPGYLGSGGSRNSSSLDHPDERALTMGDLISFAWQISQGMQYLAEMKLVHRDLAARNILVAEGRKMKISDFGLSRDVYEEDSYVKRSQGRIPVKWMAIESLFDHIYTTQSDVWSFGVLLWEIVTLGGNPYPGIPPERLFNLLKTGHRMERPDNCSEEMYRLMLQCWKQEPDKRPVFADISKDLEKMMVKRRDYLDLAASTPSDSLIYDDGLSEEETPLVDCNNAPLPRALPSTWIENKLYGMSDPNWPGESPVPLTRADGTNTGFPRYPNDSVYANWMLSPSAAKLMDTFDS
Described as above. The test is classed as biochemical. Conditions: for remaining activity at 1 µM: compound at 1 uM, ATP 10 µM, read-out: % Enzyme Activity (relative to DMSO controls) V804M; for IC50: read-out: Enzymatic inhibitory activity (IC50) nM V804M.

A further test has as its target T4, RET(V804M)-KIF5B (Homo sapiens, UniProt P07949, V804M).
T4 sequence (P07949 713-1114 V804M): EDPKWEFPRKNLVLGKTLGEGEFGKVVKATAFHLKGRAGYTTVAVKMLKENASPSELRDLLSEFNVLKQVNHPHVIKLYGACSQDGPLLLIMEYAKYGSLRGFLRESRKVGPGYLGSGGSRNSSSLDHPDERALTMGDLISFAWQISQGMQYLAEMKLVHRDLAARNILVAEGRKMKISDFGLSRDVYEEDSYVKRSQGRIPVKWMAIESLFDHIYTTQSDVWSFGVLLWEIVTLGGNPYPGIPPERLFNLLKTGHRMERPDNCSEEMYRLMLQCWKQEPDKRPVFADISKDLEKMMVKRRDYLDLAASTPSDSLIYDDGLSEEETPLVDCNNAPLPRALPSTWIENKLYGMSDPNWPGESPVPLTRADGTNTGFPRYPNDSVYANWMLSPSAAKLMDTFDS
T4 sequence (P33176 2-575 partner): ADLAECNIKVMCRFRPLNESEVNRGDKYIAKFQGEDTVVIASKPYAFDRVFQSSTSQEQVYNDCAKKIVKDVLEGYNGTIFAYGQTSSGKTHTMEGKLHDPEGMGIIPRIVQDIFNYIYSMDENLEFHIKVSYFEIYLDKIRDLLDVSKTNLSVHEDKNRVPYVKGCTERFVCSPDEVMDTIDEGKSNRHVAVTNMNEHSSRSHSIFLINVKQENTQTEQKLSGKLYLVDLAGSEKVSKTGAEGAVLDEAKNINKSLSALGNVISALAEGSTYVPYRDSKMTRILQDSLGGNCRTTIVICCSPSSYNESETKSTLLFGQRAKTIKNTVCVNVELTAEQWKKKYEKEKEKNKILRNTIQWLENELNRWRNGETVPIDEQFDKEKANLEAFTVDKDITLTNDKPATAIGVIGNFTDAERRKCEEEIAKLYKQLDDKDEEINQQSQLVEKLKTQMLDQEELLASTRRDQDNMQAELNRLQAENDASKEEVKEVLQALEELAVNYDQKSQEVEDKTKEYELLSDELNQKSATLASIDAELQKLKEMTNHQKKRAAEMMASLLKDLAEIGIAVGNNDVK
Described as above. It counts as biochemical.

The next test addresses T5, RET-CCDC6 (PTC1) (Homo sapiens, UniProt P07949).
T5 construct: purchased Reaction Biology Corp
The description is as above. It counts as biochemical. Conditions: for remaining activity at 1 µM: compound at 1 uM, ATP 10 µM, read-out: % Enzyme Activity (relative to DMSO controls) RET-CCDC6 (PTC1); for remaining activity at 10 µM: compound at 10 uM, ATP 1 µM.

The target in another test is T6, RET-NCOA4 (PTC3) (Homo sapiens, UniProt P07949).
T6 construct: purchased Reaction Biology Corp
T6 sequence (P07949 whole entry, looked up): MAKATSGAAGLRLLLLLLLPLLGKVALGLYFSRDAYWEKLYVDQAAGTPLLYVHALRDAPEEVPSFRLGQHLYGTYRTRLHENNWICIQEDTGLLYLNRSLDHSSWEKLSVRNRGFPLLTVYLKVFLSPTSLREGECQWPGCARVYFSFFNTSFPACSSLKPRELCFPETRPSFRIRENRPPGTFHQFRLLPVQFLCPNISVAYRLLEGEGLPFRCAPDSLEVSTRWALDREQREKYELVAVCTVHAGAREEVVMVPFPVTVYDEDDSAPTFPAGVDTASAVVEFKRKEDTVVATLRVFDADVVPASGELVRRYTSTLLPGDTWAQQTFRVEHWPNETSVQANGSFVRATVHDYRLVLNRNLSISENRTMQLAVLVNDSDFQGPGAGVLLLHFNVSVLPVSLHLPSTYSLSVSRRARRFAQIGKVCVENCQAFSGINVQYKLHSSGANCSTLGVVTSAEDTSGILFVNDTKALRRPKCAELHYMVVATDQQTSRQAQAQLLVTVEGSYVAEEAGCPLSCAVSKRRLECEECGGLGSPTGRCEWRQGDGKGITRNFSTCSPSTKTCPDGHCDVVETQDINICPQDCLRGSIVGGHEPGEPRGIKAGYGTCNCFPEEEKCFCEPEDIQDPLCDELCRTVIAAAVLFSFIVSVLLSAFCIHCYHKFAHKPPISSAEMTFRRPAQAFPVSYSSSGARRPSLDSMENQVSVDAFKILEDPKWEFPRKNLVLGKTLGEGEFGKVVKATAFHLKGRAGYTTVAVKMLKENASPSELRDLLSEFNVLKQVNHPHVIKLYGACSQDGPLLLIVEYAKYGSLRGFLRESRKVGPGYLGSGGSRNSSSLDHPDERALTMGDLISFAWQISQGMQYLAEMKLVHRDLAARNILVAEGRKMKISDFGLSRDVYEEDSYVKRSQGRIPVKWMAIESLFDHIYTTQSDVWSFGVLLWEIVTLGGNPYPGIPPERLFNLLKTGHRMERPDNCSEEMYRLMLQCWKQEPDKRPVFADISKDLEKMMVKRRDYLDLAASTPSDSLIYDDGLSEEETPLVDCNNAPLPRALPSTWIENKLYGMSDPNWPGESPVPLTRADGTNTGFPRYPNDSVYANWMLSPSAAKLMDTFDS
The description is as above. It counts as biochemical. The conditions noted are these: compound at 1 uM; ATP 10 µM; read-out: % Enzyme Activity (relative to DMSO controls) RET-NCOA4 (PTC3).

A further test addresses T7, RET (G810S/M918T) (Homo sapiens, UniProt P07949, G810S/M918T).
T7 construct: purchased Reaction Biology Corp
Described as above. Conditions: compound at 10 uM, ATP 1 µM. The test is classed as biochemical.

For a further test, the system named is BaF3 KIF5B-RET (G810R). The test can be described thus: Cell proliferation inhibition, Cell Counting Kit-8, Ba/F3 cell line. Conditions: Mus musculus, 72 hours incubation, read-out: Cell Viability of BaF3 Cell lines (IC50 in uM) KIF5B-RET (G810R). The test is classed as cell-based, rodent.
A further test concerns BaF3 KIF5B-RET (V804M). Described as above. The test is classed as cell-based, rodent. Conditions: Mus musculus, 72 hours incubation, read-out: Cell Viability of BaF3 Cell lines (IC50 in uM) KIF5B-RET (V804M). The procedure: To evaluate the inhibitory activity of the compounds represented by Formula I or Formula IV according to the present invention against RET mutation-driven cell growth in the Ba/F3 cell line and against cell growth in the non-small cell lung cancer cell line A-549, the following experiment was performed.
Each cell line was seeded in a 96-well plate at 1×10^4 cells/90 µL/well, and 10 µL/well of culture medium containing each example and intermediate compound or DMSO control at 9 concentrations (1 nM to 100 µM) prepared by 3-fold serial dilutions was added to achieve a final concentration of 0 to 100 µM, followed by incubation for 72 hours in a 37°C, 5% CO2 incubator. After 72 hours of incubation, the compound-treated plates were removed, and Cell Counting Kit-8 solution was added at 10 µL/well and mixed well. The plates were then incubated for 2 hours in a CO2 incubator at 37°C, and the absorbance was measured at 450 nm using a microplate reader.
The absorbance of the experimental group relative to that of the DMSO control group was converted to % survival, and the IC50 values representing the concentration required to inhibit cell growth by 50% were calculated. As a control compound, selpercatinib, a known RET inhibitor, was treated to calculate the IC50 values.

A further test has as its system A-549. The test can be described thus: Cell proliferation inhibition, Cell Counting Kit-8, non-small cell lung cancer cell line. Conditions: A-549 cell line; 72 hours incubation; test concentration not given. The test is classed as cell-based. On the technique in general: Tetrazolium assays rely on reduction of a dye to a coloured formazan, in cell work by metabolically active cells.

Setting [1] is: Data 1, read-out: % Enzyme Activity (relative to DMSO controls) RET-CCDC6 (PTC1) Data 1.
Where [2] appears, read: Data 2, read-out: % Enzyme Activity (relative to DMSO controls) RET-CCDC6 (PTC1) Data 2.
Where [3] appears, read: Data 1, read-out: % Enzyme Activity (relative to DMSO controls) RET (G810S/M918T) Data 1.
Where [4] appears, read: Data 2, read-out: % Enzyme Activity (relative to DMSO controls) RET (G810S/M918T) Data 2.

T5 sequence (P07949 whole entry, looked up): as above
T1 sequence (P07949 29-1114): as the sequence (P07949 29-1114 V804M) above, with M776V counted along it
T2 sequence (P07949 29-1114 G810R): as the sequence (P07949 29-1114 V804M) above, with M776V, G782R counted along it
T7 sequence (P07949 29-1114 G810S/M918T): as the sequence (P07949 29-1114 V804M) above, with M776V, G782S, M890T counted along it

As to `CCNc1cc(-c2ccc(N3CC(Oc4cccc(F)c4)C3)nc2)c2nccnc2c1` [Example 3, N-ethyl-8-(6-(3-(3-fluorophenoxy)azetidin-1-yl)pyridin-3-yl)quinoxalin-6-amine], the remaining activity at 1 µM on RET was found to be 0.14%; on RET(G810R) it was 11.4%; on RET(V804M), 0.63%; on RET-CCDC6 (PTC1) it was 18.6%; on RET-NCOA4 (PTC3), 16.8%. Further, the IC50 (usually the point on the concentration scale where inhibition reaches its midpoint) at RET amounted to 0.57 nM; on RET(G810R), 142 nM; on RET(V804M) it was 0.78 nM; against RET(V804M)-KIF5B it was 1.36 nM; in the test with BaF3 KIF5B-RET (G810R), 1.09 µM; in the test with BaF3 KIF5B-RET (V804M), 0.12 µM. Moreover, the remaining activity at 10 µM at RET-CCDC6 (PTC1) (setting [1]) is 0.73%; at RET-CCDC6 (PTC1) (setting [2]) it was 0.91%; on RET (G810S/M918T) (setting [3]), -0.47%; on RET (G810S/M918T) (setting [4]), -0.51%. The “Cell Proliferation (% of control)” value with A-549 worked out at 25.06%.

On to `Nc1cc(-c2ccc(N3CC(Oc4cccc(F)c4)C3)nc2)c2nccnc2c1` [Example 1, 8-(6-(3-(3-fluorophenoxy)azetidin-1-yl)pyridin-3-yl)quinoxalin-6-amine], for which the remaining activity at 1 µM on RET amounted to 0.51%; at RET(G810R), 24.5%; at RET(V804M), 1.72%; on RET-CCDC6 (PTC1) it was 0.01%; on RET-NCOA4 (PTC3) it was 1.11%. For the same compound, the IC50 at RET was 3.9 nM; on RET(G810R), 275 nM; at RET(V804M), 4.2 nM; on RET(V804M)-KIF5B it was 6.71 nM; in the test on BaF3 KIF5B-RET (G810R), 0.88 µM; in the test on BaF3 KIF5B-RET (V804M), 1.02 µM. The remaining activity at 10 µM on RET-CCDC6 (PTC1) (setting [1]) was 0.75%; on RET-CCDC6 (PTC1) (setting [2]) it was 0.52%; on RET (G810S/M918T) (setting [3]), 0.22%; at RET (G810S/M918T) (setting [4]), -0.72%. The “Cell Proliferation (% of control)” value in the test with A-549 came to 34.36%.
